The numbers were not newly measured in patent US20150284900A1, “Novel Activator for Hydrogen Peroxide and Its Application” (priority 2014, published 2015), which cites them from elsewhere.

Molecules are shown by their SMILES.

The conditions of the data set: in water; room temperature (20° C.).

Turning to `OO` [Activator H2O2, Hydrogen peroxide], the ionization constant is given as 1.78×10^−12.
